Assay results as given in patent US10639287B2, “Compounds for the treatment of mitochondrial diseases” (UNIVERSITE PARIS-SUD, priority 2014, dated 2020).

Legend:
[1] = tested on: wild-type Mip1 or mutated Mip1G651S yeast protein; test: Amount of Mip1 proteins in mitochondria-enriched extracts (SDS/PAGE, western blot); format: cell-based, Saccharomyces cerevisiae; details: 32 μM vs DMSO
Description: The analysis of the effect of clofilium tosylate on the amount of wild-type or mutated Mip1 proteins was carried out on cell extracts enriched in mitochondria. In order to visualise the expression of the Mip1 and Mip1G651S proteins, the sequence encoding three HA epitopes was cloned in 3′ and in phase with the coding sequence of Mip1 and Mip1G651S.
The yeast cells were cultured in selective medium (SC-TRP, 2% ethanol) overnight. Then, the cells were seeded at an initial optical density (DO600) of 0.05 in 100 mL of YPE (1% Yeast Extract, 0.5% Bacto Peptone, 2% Ethanol) supplemented either by DMSO or by 32 μM clofilium tosylate at 28° C. with stirring until a DO600 between 3 and 4 was achieved. The cells were centrifuged at 3000 g for 5 min and washed with water. The isolation of the fraction enriched in mitochondria and protein extraction of this fraction were carried out according to the protocol described by Hoffman et al., 2009 (Hofmann, L., Saunier, R., Cossard, R., Esposito, M., Rinaldi, T. and Delahodde, A. (2009) A non-proteolytic proteasome activity controls organelle fission in yeast. J. Cell. Sci., 122, 3673-3682).
The protein extracts of the fractions enriched in mitochondria were analysed by SDS/PAGE gel electrophoresis (6% for the analysis of the proteins Mip1-HA and Mip1G651S-HA and 10% for the analysis of Cox2 mitochondrial proteins (encoded by mtDNA) and porin). […]

[2] = tested on: control fibroblasts and fibroblasts from a patient with a mutation on each allele of the POLG gene; test: Maximum non-toxic concentration on fibroblast cultures (xCELLigence cell index); format: cell-based, human; details: 140 h, 2.5-10 μM tested
Description: Skin fibroblasts from the control and from the patient were cultured in DMEM Galactose (DMEM free of glucose (Life Technologies) supplemented with 10 mM galactose, 10% foetal bovine serum, 200 U/mL penicillin, 200 U/mL streptomycin). Uridine (50 μg/mL) and sodium pyruvate (2.5 mM) were added to the culture medium to maintain the cells expressing a deficiency of the respiratory chain. The cells were incubated in a controlled atmosphere at 37° C. and 5% CO2.
Cell growth of patient and control fibroblasts was measured continuously for 140 h by use of an xCELLigence apparatus (ACEA Biosciences) in 96-well plates. The background noise of the signal was measured with 50 μL of culture medium per well. 50 μL of medium containing 1350 fibroblasts were then added to each well. The impedance measurement was taken every minute for 9 h and then every 15 minutes until the end of analysis.
Clofilium tosylate was diluted in 0.1% DMSO and used at different concentrations (2.5 μM, 5 μM, 10 μM) in a total volume of 50 μL. Toxic concentrations of clofilium tosylate were determined by adding the drug from the point of cell seeding. For each drug concentration and each control, the analysis was carried out in triplicate on 96-well plates. A mathematical algorithm was used to convert the impedance signal into cell index (CI). […]

CCCCCCC[N+](CC)(CC)CCCCc1ccc(Cl)cc1.Cc1ccc(S(=O)(=O)[O-])cc1 [clofilium tosylate]
amount of wild-type Mip1 or mutated Mip1G651S yeast protein [1]: increased
maximum approved (non-toxic) concentration [2]: 2.5 µM
